Measured values from patent US12042503B2, “Compositions and methods for treating coronavirus infections” (priority 2020, dated 2024).

Legend:
[1] = Effect of food on oral absorption of GP1681
TP receptor (TBAX2R) = target: T1, TP receptor (TBAX2R) (Homo sapiens, UniProt P21731); experiment: PathHunter beta-arrestin cell-based prostanoid receptor assay, TP
T1 construct: host or cells: PathHunter beta-arrestin cell line
T1 sequence (P21731 1-343): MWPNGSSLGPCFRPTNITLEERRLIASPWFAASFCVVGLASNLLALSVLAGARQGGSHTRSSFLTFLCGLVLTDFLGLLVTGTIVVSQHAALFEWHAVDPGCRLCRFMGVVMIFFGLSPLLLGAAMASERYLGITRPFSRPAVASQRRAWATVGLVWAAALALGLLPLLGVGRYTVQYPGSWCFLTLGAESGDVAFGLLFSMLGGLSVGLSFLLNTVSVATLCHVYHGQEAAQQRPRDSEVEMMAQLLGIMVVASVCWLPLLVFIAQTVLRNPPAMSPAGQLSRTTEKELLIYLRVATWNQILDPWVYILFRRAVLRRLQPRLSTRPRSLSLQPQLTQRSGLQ
Experimental: (§1) DiscoverX cell-based ligand binding assays were performed in the PathHunter beta-arrestin (EP1, EP2, EP3, EP4, FP, IP, and TP receptors) or cAMP Hunter™ (DP receptor) cell lines.
(§2) Receptor binding studies were performed in either the PathHunter® b-Arrestin (EP1, EP2, EP3, EP4, FP, IP, and TP receptors) or cAMP Hunter™ (DP receptor) cell lines. A 10 mM working stock of GP1681 was created in 1×PBS, pH 7.4. All assays were carried out in duplicate with 10 individual concentrations of GP1681. A three-fold dilution series of GP1681 was established for the initial or pilot experiment with a starting concentration of 4 uM (starting concentration was chosen based on previous Gemmus Pharma preclinical experimental results).
(§3) GP1681 was incubated with cells lines at either 37° C. or room temperature, for 90-180 minutes (temperatures and incubation times are all dependent on established optimized procedures for each receptor cell line) after which cell wells were processed and signal production detected. […] Vehicle only controls (PBS, pH 7.4) were also included for each receptor cell line. Receptor binding activity was analyzed using CBIS data analysis suite (ChemInnovation, CA). The percentage of activity was calculated using the following formula: % Activity=100%×(mean RLU of test sample−mean RLU of vehicle control)/(mean MAX control ligand−mean RLU of vehicle control). Dose curves were performed and EC50 values determined.

EP1 receptor (PTGER1) = target: T2, EP1 receptor (PTGER1) (Homo sapiens, UniProt P34995); experiment: PathHunter beta-arrestin cell-based prostanoid receptor assay, EP1; conditions: β-Arrestin
T2 construct: host or cells: PathHunter beta-arrestin cell line
T2 sequence (P34995 1-402): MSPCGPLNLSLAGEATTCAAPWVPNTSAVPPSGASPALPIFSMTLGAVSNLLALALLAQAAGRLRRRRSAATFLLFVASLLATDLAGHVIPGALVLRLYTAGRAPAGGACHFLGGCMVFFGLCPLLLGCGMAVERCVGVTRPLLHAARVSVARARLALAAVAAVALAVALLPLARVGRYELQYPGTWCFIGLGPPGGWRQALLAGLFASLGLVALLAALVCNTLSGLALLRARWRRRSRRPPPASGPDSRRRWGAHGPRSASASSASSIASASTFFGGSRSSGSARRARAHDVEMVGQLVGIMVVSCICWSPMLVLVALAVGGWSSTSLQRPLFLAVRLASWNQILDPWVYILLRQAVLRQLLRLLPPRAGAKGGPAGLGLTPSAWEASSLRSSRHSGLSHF
Experimental: as §1, §2, §3
The four assays were repeated with a higher starting concentration.
The second experimental run of the receptor binding assay was performed with these last four cell lines including GP1681 and their respective positive and negative (vehicle, PBS pH 7.4) controls. A 10 mM GP1681 working stock was again created in 1×PBS, pH 7.4. A three-fold serial dilution scheme was again used for GP1681 samples, starting this time at a concentration of 500 μM. The remainder of the second experimental run was performed in the same manner as run 1.

[2] = Stability of GP1681 dosing formulations at room temperature by UHPLC; format: physicochemical; conditions: 10% (w/v) PEG 400 in calcium and magnesium free PBS, pH 7.4; 0.0319 and 0.0596 mg/mL
Experimental: GP1681 in 10% (w/v) polyethylene glycol (PEG) 400 in calcium and magnesium free phosphate buffered saline (PBS), pH 7.4 was used for evaluation by ultra-high performance liquid chromatography (UHPLC; Agilent 1290 UHPLC instrument).
Dosing formulations of GP1681 (0, 0.01, 0.03, and 0.05 mg/mL) in 10% (w/v) PEG 400 in calcium and magnesium free PBS, pH 7.4 were collected and analyzed by UHPLC to assess accuracy of the preparation. Aliquots from the top, middle and bottom of the formulations were collected and analyzed to assess homogeneity of the formulations. The dosing formulations were diluted to bring the test article concentration to a suitable level within the calibration range. The samples were initially analyzed on the day of preparation. However, due to unacceptable results observed, the backup samples (stored at −10 to −30° C.) were analyzed five days later.
The concentration of GP1681 was calculated by reference to the solvent standard solutions prepared and analyzed concurrently with the dosing formulations. […]
Stability of the dosing formulations was determined by storing the middle aliquots of the high and low primary dose formulation samples in the Definitive Assay at room temperature for 3.7 hours and reanalyzing as described above. The results met the acceptance criterion of 90-110% of the concentration determined at T=0.

In the case of CC#CCC(C)C(O)C=CC1C(O)CC2Oc3c(CCCC(=O)O)cccc3C21 (single isomer, unassigned) [GP1681, esuberaprost], the “effect of food on oral absorption” value [1] is reported as “positive effect”, the “binding to TP receptor, in words” value (TP receptor (TBAX2R)) is reported as “does not bind” and the EC50 (TP receptor (TBAX2R); Run 1, GP1681 starting concentration 4 uM, β-Arrestin) is reported as > 4 µM. The EC50 (EP1 receptor (PTGER1); Run 1, GP1681 starting concentration 4 uM, curve for GP1681 not fully sigmoidal) was 1.08 µM, the EC50 (EP1 receptor (PTGER1); Run 2, GP1681 starting concentration 500 μM) was 7.81 µM and the “stable at room temperature” value [2] was “at least 3.7 hours”.
